According to patent US10203327B2, “Organic compounds” (Novartis AG, priority 2013, dated 2019):
Where a SMILES comes first, the peptide text is derived from it.

Assays:
human GPR23 = molecular target: T1, human GPR23 (Homo sapiens, UniProt Q99677); experiment: Aequorin assay on unrelated receptor hGPR23 (selectivity); type: cell-based; conditions: CHO-Aeq cells expressing hGPR23
T1 construct: expressed in transfected cells; host or cells: CHO-Aeq Galpha16
From the text: (§1) Throughout this specification, the term “Aequorin assay” refers to methods for performing high throughput functional screening of GPCRs. Said methods employ recombinant cell lines stably transfected with plasmids encoding apoaequorin, a GPCR of interest and if necessary, a recombinant G protein to redirect the coupling of the GPCR toward calcium signaling. After clonal selection, the best clones are selected on the basis of pharmacological characterization, high signal to background ratio and stability of expression. This method has been developed by Euroscreen SA, 47 Rue Adrienne Bolland, 6041 Gosselies, Belgium.
(§2) QKPQLWVVPGALPQV peptide (SEQ ID NO: 2), corresponding to a putative tryptic C-term fragment (43-57) of the porcine peptide, was first synthesised for GPR15 evaluation.
(§3) Both peptides (i.e., those produced via CHO production and in vitro production in the agglutinin wheat germ extract system) were tested for GPR15 activation using Aequorin dose response curves.

human GPR15 [1] = molecular target: T2, human GPR15 (Homo sapiens, UniProt P49685); experiment: Aequorin assay on human GPR15 stably expressed in recombinant cells; type: cell-based
T2 construct: expressed in transfected cells; host or cells: CHO-Aeq (with or without Galpha16), vector pEFIN3
T2 sequence (P49685 1-360): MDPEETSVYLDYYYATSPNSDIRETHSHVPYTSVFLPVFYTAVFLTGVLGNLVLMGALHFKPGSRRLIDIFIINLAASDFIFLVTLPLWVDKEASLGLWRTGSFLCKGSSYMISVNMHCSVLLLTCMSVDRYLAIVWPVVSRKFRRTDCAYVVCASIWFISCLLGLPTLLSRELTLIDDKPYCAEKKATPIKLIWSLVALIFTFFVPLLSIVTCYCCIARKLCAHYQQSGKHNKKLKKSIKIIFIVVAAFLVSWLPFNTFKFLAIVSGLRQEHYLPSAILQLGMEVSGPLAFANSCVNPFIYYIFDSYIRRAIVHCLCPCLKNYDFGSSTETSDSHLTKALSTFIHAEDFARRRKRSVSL
From the text: as §1
(§4) Plasmids encoding human and mouse GPR15 were stably transfected in CHO, 1321 N1 and HEK293 cells expressing the apoaequorin (CHO-Aeq, 1321-N1-Aeq and HEK-Aeq). GPR15 mRNA sequence integrities were checked using RT-PCR at T0 and T30 culture times in CHO cells.
An hGPR15 CHO-Gα16Aeq cell line was used for the Aequorin screening of Euroscreen proprietary libraries of natural ligands and tissue extracts collection. Specific activation of GPR15 over more than 20 other orphan GPCRs was identified in fractions from a colon aqueous extract.
as §2, §3

[2] = system: subjects treated for psoriasis; conditions: after 4 weeks; cited from earlier work
SW48 cells [3] = experiment: Forskolin-induced cAMP in SW48 colon cancer cells; type: cell-based, human; conditions: pertussis toxin sensitive
human GPRC5C = molecular target: T3, human GPRC5C (Homo sapiens, UniProt Q9NQ84); experiment: Aequorin assay on unrelated receptor GPRC5C (selectivity); type: cell-based; conditions: CHO-Aeq cells expressing GPRC5C
T3 construct: expressed in transfected cells; host or cells: CHO-Aeq Galpha16
T3 sequence (Q9NQ84 24-441): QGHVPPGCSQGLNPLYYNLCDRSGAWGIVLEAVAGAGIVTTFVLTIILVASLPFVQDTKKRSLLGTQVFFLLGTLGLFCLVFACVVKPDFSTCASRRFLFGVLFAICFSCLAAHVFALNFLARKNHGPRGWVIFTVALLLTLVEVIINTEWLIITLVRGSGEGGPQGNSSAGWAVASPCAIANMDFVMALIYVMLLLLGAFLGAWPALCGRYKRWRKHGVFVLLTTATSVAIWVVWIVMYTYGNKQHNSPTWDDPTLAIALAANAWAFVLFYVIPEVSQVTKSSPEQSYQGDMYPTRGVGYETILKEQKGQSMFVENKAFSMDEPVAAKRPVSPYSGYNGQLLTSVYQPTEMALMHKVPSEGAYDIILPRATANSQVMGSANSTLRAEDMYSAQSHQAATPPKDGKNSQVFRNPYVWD

human GPR15 [4] = molecular target: T2, human GPR15; experiment: cAMP HTRF assay on CHO and HEK cells stably expressing hGPR15; type: cell-based
SW48 cells [5] = experiment: Intracellular calcium in SW48 colon cancer cells; type: cell-based, human; conditions: after priming
mouse GPR15 = molecular target: T4, mouse GPR15 (Mus musculus, UniProt Q0VDU3); experiment: Aequorin assay on mouse GPR15 stably expressed in CHO-Aeq cells; type: cell-based; conditions: CHO and IV produced polypeptide
T4 construct: expressed in transfected cells; host or cells: CHO-Aeq (with or without Galpha16), vector pEFIN5
T4 sequence (Q0VDU3 1-360): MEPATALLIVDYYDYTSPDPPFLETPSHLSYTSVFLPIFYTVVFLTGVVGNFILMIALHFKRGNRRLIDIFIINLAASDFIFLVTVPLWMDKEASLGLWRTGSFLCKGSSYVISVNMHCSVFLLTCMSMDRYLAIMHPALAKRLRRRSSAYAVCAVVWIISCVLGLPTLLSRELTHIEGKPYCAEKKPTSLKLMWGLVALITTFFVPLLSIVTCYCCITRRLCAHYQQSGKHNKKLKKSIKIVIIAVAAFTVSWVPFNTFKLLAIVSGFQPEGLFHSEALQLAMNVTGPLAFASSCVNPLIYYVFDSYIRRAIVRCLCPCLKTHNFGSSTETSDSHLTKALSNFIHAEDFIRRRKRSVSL
From the text: as §1, §4, §2

[6] = system: human neonatal dermal fibroblasts; experiment: IP-10 (CXCL10) release from human neonatal dermal fibroblasts; type: cell-based; conditions: GPR15-independent
From the text: GPR15L action is also mediated by a GPR15-independent mechanism in human neonatal dermal fibroblasts. […] Interferon gamma-induced protein 10 (IP-10), also known as C—X—C motif chemokine 10 (CXCL10), is secreted by monocytes, endothelial cells, and fibroblasts in response to IFN-γ. CXCL10 binds to the cell surface chemokine receptor CXCR3 and is implicated in such processes as chemoattraction for monocytes/macrophages, T cells, NK cells, and dendritic cells, promotion of T cell adhesion to endothelial cells, antitumor activity, and inhibition of bone marrow colony formation and angiogenesis.

T1 sequence (Q99677 whole entry): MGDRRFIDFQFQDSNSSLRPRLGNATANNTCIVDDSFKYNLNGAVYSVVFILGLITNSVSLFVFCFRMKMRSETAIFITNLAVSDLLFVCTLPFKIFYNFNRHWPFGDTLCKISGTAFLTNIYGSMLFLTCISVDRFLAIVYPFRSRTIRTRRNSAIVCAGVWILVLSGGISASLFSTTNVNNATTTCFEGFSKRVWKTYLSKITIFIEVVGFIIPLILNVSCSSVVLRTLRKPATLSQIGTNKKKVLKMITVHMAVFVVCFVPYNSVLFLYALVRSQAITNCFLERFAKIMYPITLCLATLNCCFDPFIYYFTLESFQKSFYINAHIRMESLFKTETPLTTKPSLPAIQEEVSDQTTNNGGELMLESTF

Row | Molecule | calcium/luminescence response of hGPR23 cells (human GPR23) | activation of hGPR15 CHO cell line (human GPR15 [1]; hGPR15 CHO cell line, compared with EC50 of ~2 μM) | c10orf99 mRNA [2] | reduction in the Psoriasis Area and Severity Index (PAST) [2] [%] | forskolin-induced cAMP elevation (SW48 cells [3]) | calcium signal on GPRC5C (human GPRC5C) | activation of hGPR15 (cAMP HTRF assay) (human GPR15 [4]) | activation of hGPR15 (human GPR15 [1]; CHO-Aeq cells, ligand from CHO production or IV preparation) | activation of hGPR15 in HEK-Aeq Gα16 cells (human GPR15 [1]; stably transfected HEK-Aeq Gα16 cells) | intracellular calcium levels (SW48 cells [5]) | activation of mouse GPR15 receptor (mouse GPR15) | IP-10 release [6]
1 | CC(C)C[C@H](NC(=O)[C@H](CCC(N)=O)NC(=O)[C@@H]1CCCN1C(=O)[C@H](CCCCN)NC(=O)[C@@H](N)CCC(N)=O)C(=O)N[C@@H](Cc1c[nH]c2ccccc12)C(=O)N[C@H](C(=O)N[C@H](C(=O)N1CCC[C@H]1C(=O)NCC(=O)N[C@@H](C)C(=O)N[C@@H](CC(C)C)C(=O)N1CCC[C@H]1C(=O)N[C@@H](CCC(N)=O)C(=O)N[C@H](C(=O)O)C(C)C)C(C)C)C(C)C [QKPQLWVVPGALPQV peptide, QKPQLWVVPGALPQV] (H-QKPQLWVVPGALPQV-OH; N-terminus and C-terminus assumed) | failed in responding | same affinity |  |  |  |  |  |  |  |  |  | 
2 | secukinumab: fully human monoclonal antibody that selectively binds to and neutralizes IL-17A |  |  | significant decrease | 58 |  |  |  |  |  |  |  | 
3 | KRRPAKAWSGRRTRLCCHRVPSPNSTNLKGHHVRLCKPCK LEPEPRLWVVPGALPQV (KRRPAKAWSGRRTRLCCHRVPSPNSTNLKGHHVRLCKPCKLEPEPRLWVVPGALPQV) [c10orf99, made by CHO production, in vitro translation or synthesis] | failed to induce any calcium signal |  |  |  | pertussis toxin sensitive decrease in forskolin-induced cAMP elevation | failed to induce any calcium signal | activation | specifically activated | confirmed | dose response dependent increase in intracellular calcium levels | Activation of mouse GPR15 receptor was observed | induces IP-10-release
